In US20240246979A1, “cGAS INHIBITORS” (Eli Lilly and Company, priority 2022, published 2024):

Key:
[1] = target: T1, cGAS (Homo sapiens, UniProt Q8N884); assay: Cellular assay to measure cGAS activity (IFNb AlphaLISA in THP1 cells stimulated by RDG-Adenovirus-GFP); type: cell-based; design: host or cells: THP1 cells differentiated with PMA and stimulated with RDG-Adenovirus-GFP; details: PMA-differentiated THP1 cells, RDG-Adenovirus-GFP at 1000 MOI; inhibition of IFNb production as marker for cGAS activity
Method: Cellular assay to measure cGAS activity: Use THP1 cell line from ATCC to determine inhibition of cGAS activity by test compounds in human cells. Plate cells on 96-well plates at 0.2×10^6/well and differentiate with phorbol myristate acetate (PMA) at 37° C./5% CO2. After 24 hours, replace PMA containing media with media lacking PMA and further incubate overnight. Stimulate cells were then by RDG-Adenovirus-GFP (Vector Biolabs #1768) at 1000 MOI for 4 hours prior to the addition of test compounds. After overnight incubation, transfer 10 μL of the media from each well to a new plate for IFNb analysis as a marker for cGAS activity. Measure quantification of IFNb with an IFNb AlphaLISA Detection kit (Perkin Elmer AL3133F) by mixing the acceptor beads with the cell supernatant followed by the addition of the biotinylated antibody and donor beads. Measure the relative fluorescence signal produced from the interaction of the donor and acceptor beads by a PHERAStar AlphaLISA protocol and evaluate the inhibitory effect of a compound by plotting specific inhibition of IFNb production against log concentration of the test compound. Calculate IC50 values using a 4-parameter non-linear logistic equation (y=(S0+((SInf−S0)/(1+((qAC50/x)^nHill))))).

[2] = target: T1, cGAS; assay: In vitro inhibition assay of cGAS activity (cGAMP production, RapidFire mass spectrometry); type: biochemical; design: Insert cDNA encoding full-length of human cGAS; His6; made in house; host or cells: E. coli BL21(DE3); details: 10 nM recombinant human cGAS, 60 nM 75-bp dsDNA, 50 μM ATP, 50 μM GTP, 3 hrs
Method: Expression and Purification of Recombinant cGAS Protein: Insert cDNA encoding full-length of human cGAS into a modified bacterial expression vector containing an in-frame His6-tag. Induce the E. coli strain BL21(DE3) harboring the plasmid with 1 mM IPTG (Isopropyl β-D-1-thiogalactopyranoside) at 18° C. overnight. Purify the His6-tagged cGAS protein over HISpur Ni-NTA resin in the presence of benzonase and RNase followed by Superdex 200 size exclusion chromatography with storage buffer (50 mM Tris-HCl pH 7.5, 300 mM NaCl, 1 mM DTT, 10% glycerol).
In vitro inhibition assay of cGAS activity: Add a 5 μL mixture containing 10 mM Tris-Cl pH 7.5, 50 mM NaCl, 5 mM MgCl2, 1 mM DTT, 0.01% Triton X-100, 60 nM 75-bp dsDNA, 50 μM ATP, 50 μM GTP, 10 nM of recombinant human cGAS, and serial dilutions of a test compound in DMSO to a 384-well plate and incubate at ambient temperature for 3 hrs. Quench the reaction by the addition of 100 μL of stop solution containing 0.1% formic acid and 0.1 μM internal standard (3′3′-difluoro cGAMP). Measure the amount of cGAMP produced by RapidFire 365 mass spectrometry and evaluate inhibitory effect of a compound by plotting percent specific inhibition of cGAMP production against log concentration of the test compound. Calculate IC50 values using a 4-parameter non-linear logistic equation (y=(S0+((Sinf−S0)/(1+((qAC50/x)^nHill))))).

T1 sequence (Q8N884 whole entry): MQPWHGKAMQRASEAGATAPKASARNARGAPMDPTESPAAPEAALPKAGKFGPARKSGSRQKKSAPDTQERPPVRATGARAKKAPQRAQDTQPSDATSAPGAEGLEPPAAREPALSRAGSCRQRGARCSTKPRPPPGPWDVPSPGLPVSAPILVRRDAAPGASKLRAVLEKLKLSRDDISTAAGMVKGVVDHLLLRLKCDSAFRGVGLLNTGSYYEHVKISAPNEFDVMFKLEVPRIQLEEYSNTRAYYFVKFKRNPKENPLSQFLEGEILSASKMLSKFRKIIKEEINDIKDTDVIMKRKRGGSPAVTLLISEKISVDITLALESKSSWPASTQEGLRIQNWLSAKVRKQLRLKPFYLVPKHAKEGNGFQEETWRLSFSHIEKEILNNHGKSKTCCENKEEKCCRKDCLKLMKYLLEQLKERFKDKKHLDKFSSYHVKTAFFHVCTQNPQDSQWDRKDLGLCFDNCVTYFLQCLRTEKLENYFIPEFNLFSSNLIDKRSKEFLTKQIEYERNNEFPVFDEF

| IC50 [1] [nM] | IC50 [2] [nM] | SMILES |
| --- | --- | --- |
| > 10000 | 2000 | CC1C(=O)NCCc2[nH]c3c(Cl)c(Cl)cc(NCc4cocn4)c3c21 (stereo in doubt) [Example 59, (S′)-7,8-Dichloro-1-methyl-10-((oxazol-4-ylmethyl)amino)-3,4,5,6-tetrahydroazepino[4,5-b]indol-2(1H)-one Or (R)-7,8-Dichloro-1-methyl-10-((oxazol-4-ylmethyl)amino)-3,4,5,6-tetrahydroazepino[4,5-b]indol-2(1H)-one] |
| 3570 | 26.2 | CCOC(=O)CC1CNC(=O)Cc2c1[nH]c1c(Cl)c(Cl)cc(-c3cnn(C)n3)c21 (racemic) [Example 4, Ethyl 2-(7,8-dichloro-10-(2-methyl-2H-1,2,3-triazol-4-yl)-2-oxo-1,2,3,4,5,6-hexahydroazepino[4,5-b]indol-5-yl)acetate] |
| 819 | 20.5 | Cn1ncc(-c2cc(Cl)c(Cl)c3[nH]c4c(c23)CC(=O)NCC4)n1 [Example 2, 7,8-Dichloro-10-(2-methyl-2H-1,2,3-triazol-4-yl)-3,4,5,6-tetrahydroazepino[4,5-b]indol-2(1H)-one] |
| ≥ 10000 | 20200 | C[C@H]1C(=O)NCC(C)(C)c2c1c1c(NC(=O)CO)cc(Cl)c(Cl)c1n2C (single isomer, unassigned) [Example 135, (R)—N-(7,8-Dichloro-1,5,5,6-tetramethyl-2-oxo-1,2,3,4,5,6-hexahydroazepino[4,5-b]indol-10-yl)-2-hydroxyacetamide or (S)—N-(7,8-Dichloro-1,5,5,6-tetramethyl-2-oxo-1,2,3,4,5,6-hexahydroazepino[4,5-b]indol-10-yl)-2-hydroxyacetamide] |
| 180 | 17.2 | Cn1c2c(c3c(CC#N)cc(Cl)c(Cl)c31)CC(=O)NCC2CCO (centres unmarked) [Example 121, 2-(7,8-Dichloro-5-(2-hydroxyethyl)-6-methyl-2-oxo-1,2,3,4,5,6-hexahydroazepino[4,5-b]indol-10-yl)acetonitrile] |
| 490 | 8.44 | C[C@H]1C(=O)NCCc2[nH]c3c(Cl)c(Cl)cc(NCC(F)(F)CO)c3c21 (single isomer, unassigned) [Example 68, (R)-7,8-Dichloro-10-((2,2-difluoro-3-hydroxypropyl)amino)-1-methyl-3,4,5,6-tetrahydroazepino[4,5-b]indol-2(1H)-one or (S)-7,8-Dichloro-10-((2,2-difluoro-3-hydroxypropyl)amino)-1-methyl-3,4,5,6-tetrahydroazepino[4,5-b]indol-2(1H)-one] |
| 1180 | 45.6 | C[C@H](O)C(=O)Nc1cc(Cl)c(Cl)c2[nH]c3c(c12)[C@@H](C)C(=O)NCC3(C)C (single isomer, unassigned) [Example 182, (S)—N—((R)-7,8-Dichloro-1,5,5-trimethyl-2-oxo-1,2,3,4,5,6-hexahydroazepino[4,5-b]indol-10-yl)-2-hydroxypropanamide or (S)—N—((S)-7,8-dichloro-1,5,5-trimethyl-2-oxo-1,2,3,4,5,6-hexahydroazepino[4,5-b]indol-10-yl)-2-hydroxypropanamide] |
| 1150 | 18 | COCCOc1cc(Cl)c(Cl)c2c1c1c(n2C)CCNC(=O)C1C (centres unmarked) [Example 97, 7,8-Dichloro-10-(2-methoxyethoxy)-1,6-dimethyl-3,4,5,6-tetrahydroazepino[4,5-b]indol-2(1H)-one] |
| 914 | 58.1 | N#CCc1cc(Cl)c(Cl)c2[nH]c3c(c12)CC(=O)NCC3 [Example 28, 2-(7,8-Dichloro-2-oxo-1,2,3,4,5,6-hexahydroazepino[4,5-b]indol-10-yl)acetonitrile] |
| 356 | 16.3 | C[C@@H]1C(=O)NCCc2[nH]c3c(Cl)c(Cl)cc(NC(=O)CO)c3c21 (single isomer, unassigned) [Example 12A] |
| 655 | 17.7 | C[C@@H]1CNC(=O)[C@H](C)c2c1[nH]c1c(Cl)c(Cl)cc(NCCO)c21 (single isomer, unassigned) [Example 155] |
| 1020 | 20.7 | COCCC1CNC(=O)Cc2c1[nH]c1c(Cl)c(Cl)cc(-c3cnn(C)n3)c21 (racemic) [Example 166, 7,8-Dichloro-5-(2-methoxyethyl)-10-(2-methyl-2H-1,2,3-triazol-4-yl)-3,4,5,6-tetrahydroazepino[4,5-b]indol-2(1H)-one] |
| 820 | 20 | C[C@H]1C(=O)NCC(C)(C)c2[nH]c3c(Cl)c(Cl)cc(NC(=O)CO)c3c21 (single isomer, unassigned) [Example 133] |
| 4340 | 48.9 | C[C@@H]1C(=O)NCCc2c1c1c(NC(=O)CO)cc(Cl)c(Cl)c1n2CC(F)(F)F (single isomer, unassigned) [Example 186, (S)—N-(7,8-Dichloro-1-methyl-2-oxo-6-(2,2,2-trifluoroethyl)-1,2,3,4,5,6-hexahydroazepino[4,5-b]indol-10-yl)-2-hydroxyacetamide or (R)—N-(7,8-Dichloro-1-methyl-2-oxo-6-(2,2,2-trifluoroethyl)-1,2,3,4,5,6-hexahydroazepino[4,5-b]indol-10-yl)-2-hydroxyacetamide] |
| 5170 | 237 | C[C@@H]1CNC(=O)Cc2c1[nH]c1c(Cl)c(Cl)cc(-c3cnn(C)n3)c21 (single isomer, unassigned) [Example 147] |
| 1700 | 748 | C[C@@H]1C(=O)NCCc2[nH]c3c(Cl)c(Cl)cc(NC(=O)CO)c3c21 (single isomer, unassigned) [Example 12B] |
| 468 | 32.3 | Cn1c2c(c3c(OCC#N)cc(Cl)c(Cl)c31)CC(=O)NCC2CCO (centres unmarked) [Example 124, 2-((7,8-Dichloro-5-(2-hydroxyethyl)-6-methyl-2-oxo-1,2,3,4,5,6-hexahydroazepino[4,5-b]indol-10-yl)oxy)acetonitrile] |
| 1760 | 45.4 | CCC1C(=O)NCCc2[nH]c3c(Cl)c(Cl)cc(NC(=O)CO)c3c21 (centres unmarked) [Example 11, N-(7,8-Dichloro-1-ethyl-2-oxo-1,2,3,4,5,6-hexahydroazepino[4,5-b]indol-10-yl)-2-hydroxyacetamide] |
| 793 | 22.4 | CCOc1cc(Cl)c(Cl)c2[nH]c3c(c12)[C@H](C)C(=O)NCC3 (single isomer, unassigned) [Example 15A] |
| 787 | 17.5 | C[C@H]1C(=O)NCC(C)(C)c2c1c1c(NC(=O)CO)cc(Cl)c(Cl)c1n2C (single isomer, unassigned) [Example 134, (R)—N-(7,8-Dichloro-1,5,5,6-tetramethyl-2-oxo-1,2,3,4,5,6-hexahydroazepino[4,5-b]indol-10-yl)-2-hydroxyacetamide or (S)—N-(7,8-Dichloro-1,5,5,6-tetramethyl-2-oxo-1,2,3,4,5,6-hexahydroazepino[4,5-b]indol-10-yl)-2-hydroxyacetamide] |

| SMILES | IC50 [1] [nM] | IC50 [2] [nM] |
| --- | --- | --- |
| CC(F)(F)C[C@@H]1CNC(=O)Cc2c1[nH]c1c(Cl)c(Cl)cc(CC#N)c21 (single isomer, unassigned) [Example 138] | 431 | 8 |
| Cn1c2c(c3c(CC#N)cc(Cl)c(Cl)c31)CC(=O)NC[C@H]2CC(C)(C)O (single isomer, unassigned) [Example 130] | 205 | 12.3 |
| CC[C@H]1C(=O)NCCc2[nH]c3c(Cl)c(Cl)cc(OCC#N)c3c21 (single isomer, unassigned) [Example 35] | 3690 | 43.8 |
| CC(C)(O)C[C@@H]1CNC(=O)Cc2c1[nH]c1c(Cl)c(Cl)cc(OCC#N)c21 (single isomer, unassigned) [Example 109] | 1860 | 159 |
| Cn1c2c(c3c(OCC#N)cc(Cl)c(Cl)c31)CC(=O)NC[C@H]2CCO (single isomer, unassigned) [Example 126] | 501 | 997 |
